Assay results published in publication PMC7238036, “An Interspecies Molecular and Functional Study of Organic Cation Transporters at the Blood-Brain Barrier: From Rodents to Humans” (Pharmaceutics, 2020).

Assays:
[1] = test system: primary human brain microvascular endothelial cells (BMVECs)
Experimental: BMVECs were obtained from isolated human brain microvessels and cultured in petri dishes in the presence of puromycin (P0), to avoid contamination from other cell types. BMVECs were later used in astrocyte-conditioned culture media for protein extraction, or for the establishment of a human BBB model to conduct permeability assays.
After BMVECs amplification, cells were seeded on inserts (Transwell, Corning, ThermoFisher, Les Ulis, France). […] Permeability studies using radiolabeled [^3H]-L-Phenylalanine (~4 nM) or [^3H]-MPP^+ (~6 nM) were performed on BMVECs once the establishment of a good BBB model was verified.

BBB = conditions: cited from earlier work
OCT1 and/or OCT2 = test system: OCT1 and/or OCT2; design: method as in PMID 20477935; conditions: cited from earlier work

## CC[N+](CC)(CC)CC [TEA, Tetraethylammonium]
[1]; TEA 2 mM, [3H]-MPP+ ~6 nM, OCT1-3/MATE function
  effect of inhibitor on [3H]-MPP+ uptake, apical to basolateral: did not produce any significant decrease
Luminal BBB; TEA 30 mM co-perfusion, all rat and mouse strains tested
  effect of co-perfused inhibitor on [3H]-MPP+ brain extraction/clearance: remained unaltered
BBB; FVB Oct1−/− mice
  modification of [14C]-TEA brain transport: no modification

## C[n+]1ccc(-c2ccccc2)cc1 [[^3H]-MPP^+, 1-methyl-4-phenylpyridinium]
Luminal BBB; 2-month old mice, six strains
  differences in basal [3H]-MPP+ brain transport between the selected mouse strains: not evidenced
BBB; FVB (wild-type, Oct1/2−/−, Oct3−/−) and Swiss mice (+/- TEA)
  modification of [3H]-MPP+ brain transport: no modification

## CN1CC=C(c2ccccc2)CC1 [MPTP, 1-methyl-4-phenyl-1,2,3,6-tetrahydropyridine]
OCT1 and/or OCT2
  share of MPTP brain uptake accounted for by OCT1 and/or OCT2: more than 90%

## N[C@@H](Cc1c[nH]c2ccccc12)C(=O)O [tryptophan]
[1]; tryptophan 5 mM, [3H]-L-phenylalanine ~4 nM, n = 3, p < 0.05
  effect of inhibitor on [3H]-L-phenylalanine uptake, apical to basolateral (SLC7A5): significant decrease
